Assay results as given in patent US20180243298A1, “TRPV3 MODULATORS” (AbbVie Inc., priority 2015, published 2018).

Biological target: T1, human TRPV3 (Homo sapiens, UniProt Q8NET8)
T1 construct: expressed in transfected cells; host or cells: HEK293
T1 sequence (Q8NET8 1-790): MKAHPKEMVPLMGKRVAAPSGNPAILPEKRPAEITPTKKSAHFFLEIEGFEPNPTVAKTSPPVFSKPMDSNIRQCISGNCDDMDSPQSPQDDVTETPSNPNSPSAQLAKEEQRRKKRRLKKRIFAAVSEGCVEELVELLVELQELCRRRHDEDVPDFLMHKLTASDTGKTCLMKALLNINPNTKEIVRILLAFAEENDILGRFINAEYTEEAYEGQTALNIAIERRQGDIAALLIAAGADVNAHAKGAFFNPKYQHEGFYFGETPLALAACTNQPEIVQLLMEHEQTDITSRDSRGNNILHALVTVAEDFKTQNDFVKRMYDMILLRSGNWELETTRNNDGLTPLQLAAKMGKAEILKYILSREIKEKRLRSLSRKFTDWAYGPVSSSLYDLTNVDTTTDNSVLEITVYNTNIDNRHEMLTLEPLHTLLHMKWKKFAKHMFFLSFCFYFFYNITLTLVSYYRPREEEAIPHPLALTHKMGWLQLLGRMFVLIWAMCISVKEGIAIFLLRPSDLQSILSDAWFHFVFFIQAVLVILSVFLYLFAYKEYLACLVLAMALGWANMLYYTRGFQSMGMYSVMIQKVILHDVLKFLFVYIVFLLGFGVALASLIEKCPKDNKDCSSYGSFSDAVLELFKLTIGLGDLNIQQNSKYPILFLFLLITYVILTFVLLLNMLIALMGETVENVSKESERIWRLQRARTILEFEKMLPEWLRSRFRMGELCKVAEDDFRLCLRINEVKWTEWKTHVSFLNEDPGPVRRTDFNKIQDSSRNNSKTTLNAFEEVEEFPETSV
Assay: Calcium flux assay (FLIPR TETRA), recombinant HEK293 cells expressing TRPV3, 2-APB response
Assay type: cell-based
Conditions: 2-APB at its EC80
Protocol: (i) In Vitro Methods-Calcium Flux Assays:
Experiments were conducted using the FLIPR TETRA®. On the day prior to the experiment, recombinant HEK293 cells that stably express human and mouse TRPV3 were removed from tissue culture flasks and plated in growth medium at 20,000 cells/well into black-walled clear-bottom 384-well BIOCOAT™ poly-D-lysine assay plates (BD Biosciences, Bedford, Mass.) using a MULTIDROP® dispenser (ThermoScientific, Waltham, Mass.). On the day of the experiment, growth medium was removed, and the no-wash FLIPR® Calcium-4 dye (λEX=470-495 nm, λEM=515-575 nm; Molecular Devices, Sunnyvale, Calif.) was added to each well using the MULTIDROP® dispenser. Cells were incubated for 90-120 minutes in the dark. The compounds were dissolved in DMSO to prepare a 10 mM stock solution. The intensity of the fluorescence was captured and digitally transferred to an interfaced PC. The peak increase in fluorescence over baseline, measured in relative fluorescence units, was calculated and expressed as the percentage of the maximal 2-APB (2-aminoethoxyldiphenyl borate) response (in the absence of compound). The concentration of 2-APB corresponds to its EC80.

| Compound | IC50 [nM] |
| --- | --- |
| COc1ncnc(OC)c1C(=O)Nc1nc(C(F)(F)F)c(-c2ccncc2C#N)s1 [Example 24, N-[5-(3-cyanopyridin-4-yl)-4-(trifluoromethyl)-1,3-thiazol-2-yl]-4,6-dimethoxypyrimidine-5-carboxamide] | 100 to 500 |
| COc1ncnc(OC)c1C(=O)Nc1nc(C(F)(F)F)c(-c2cccc(F)c2C#N)s1 [Example 25, N-[5-(2-cyano-3-fluorophenyl)-4-(trifluoromethyl)-1,3-thiazol-2-yl]-4,6-dimethoxypyrimidine-5-carboxamide] | < 50 |
| CCc1sc(NC(=O)c2c(OC)ncnc2OC)nc1-c1ccccc1 [Example 26, N-(5-ethyl-4-phenyl-1,3-thiazol-2-yl)-4,6-dimethoxypyrimidine-5-carboxamide] | 50 to 100 |
| COc1ncnc(OC)c1C(=O)Nc1nc(C(F)(F)F)c(-c2cnccn2)s1 [Example 28, 4,6-dimethoxy-N-[5-(pyrazin-2-yl)-4-(trifluoromethyl)-1,3-thiazol-2-yl]pyrimidine-5-carboxamide] | 500 to 1000 |
| COc1ncnc(OC)c1C(=O)Nc1nc(C(F)(F)F)c(-c2cnc(N3CCOCC3)cn2)s1 [Example 29, 4,6-dimethoxy-N-{5-[5-(morpholin-4-yl)pyrazin-2-yl]-4-(trifluoromethyl)-1,3-thiazol-2-yl}pyrimidine-5-carboxamide] | 500 to 1000 |
| COc1ncnc(OC)c1C(=O)Nc1nc(C(F)(F)F)c(-c2cccc(C(F)(F)F)n2)s1 [Example 30, 4,6-dimethoxy-N-{4-(trifluoromethyl)-5-[6-(trifluoromethyl)pyridin-2-yl]-1,3-thiazol-2-yl}pyrimidine-5-carboxamide] | < 50 |
| COc1ncnc(OC)c1C(=O)Nc1nc(C(F)(F)F)c(N2CCOCC2)s1 [Example 32, 4,6-dimethoxy-N-[5-(morpholin-4-yl)-4-(trifluoromethyl)-1,3-thiazol-2-yl]pyrimidine-5-carboxamide] | 100 to 500 |
| CCCc1sc(NC(=O)c2c(OC)ncnc2OC)nc1C(F)(F)F [Example 34, 4,6-dimethoxy-N-[5-propyl-4-(trifluoromethyl)-1,3-thiazol-2-yl]pyrimidine-5-carboxamide] | < 50 |
| COc1ncnc(OC)c1C(=O)Nc1nc(C(F)(F)F)c(C2COC(C)(C)O2)s1 (centres unmarked) [Example 35, N-[5-(2,2-dimethyl-1,3-dioxolan-4-yl)-4-(trifluoromethyl)-1,3-thiazol-2-yl]-4,6-dimethoxypyrimidine-5-carboxamide] | 100 to 500 |
| COc1ncnc(OC)c1C(=O)Nc1nc(C(F)(F)F)c(-c2cnc(N3CCOCC3)nc2)s1 [Example 36, 4,6-dimethoxy-N-{5-[2-(morpholin-4-yl)pyrimidin-5-yl]-4-(trifluoromethyl)-1,3-thiazol-2-yl}pyrimidine-5-carboxamide] | 50 to 100 |
| COc1ncnc(OC)c1C(=O)Nc1nc(C(F)(F)F)c(C2CC2)s1 [Example 37, N-[5-cyclopropyl-4-(trifluoromethyl)-1,3-thiazol-2-yl]-4,6-dimethoxypyrimidine-5-carboxamide] | < 50 |
| COc1ncnc(OC)c1C(=O)Nc1nc(C(F)(F)F)c(C2=CCOCC2)s1 [Example 38, N-[5-(3,6-dihydro-2H-pyran-4-yl)-4-(trifluoromethyl)-1,3-thiazol-2-yl]-4,6-dimethoxypyrimidine-5-carboxamide] | < 50 |
| COc1ncnc(OC)c1C(=O)Nc1nc(C(F)(F)F)c(C2CCOCC2)s1 [Example 39, 4,6-dimethoxy-N-[5-(tetrahydro-2H-pyran-4-yl)-4-(trifluoromethyl)-1,3-thiazol-2-yl]pyrimidine-5-carboxamide] | 50 to 100 |
| COc1cc(C#N)ccc1-c1sc(NC(=O)c2c(OC)ncnc2OC)nc1C(F)(F)F [Example 43, N-[5-(4-cyano-2-methoxyphenyl)-4-(trifluoromethyl)-1,3-thiazol-2-yl]-4,6-dimethoxypyrimidine-5-carboxamide] | < 50 |
| COc1ncnc(OC)c1C(=O)Nc1nc(C(F)(F)F)c(-c2c[nH]c3cc(C#N)ccc23)s1 [Example 44, N-[5-(6-cyano-1H-indol-3-yl)-4-(trifluoromethyl)-1,3-thiazol-2-yl]-4,6-dimethoxypyrimidine-5-carboxamide] | 100 to 500 |
| COc1ncnc(OC)c1C(=O)Nc1nc(C(F)(F)F)c(-c2ccccn2)s1 [Example 45, 4,6-dimethoxy-N-[5-(pyridin-2-yl)-4-(trifluoromethyl)-1,3-thiazol-2-yl]pyrimidine-5-carboxamide] | 100 to 500 |
| COc1ncnc(OC)c1C(=O)Nc1nc(C(F)(F)F)c(-c2ccc(Cl)cn2)s1 [Example 46, N-[5-(5-chloropyridin-2-yl)-4-(trifluoromethyl)-1,3-thiazol-2-yl]-4,6-dimethoxypyrimidine-5-carboxamide] | < 50 |
| COc1ncnc(OC)c1C(=O)Nc1nc(C(F)(F)F)c(C=O)s1 [Example 47, N-[5-formyl-4-(trifluoromethyl)-1,3-thiazol-2-yl]-4,6-dimethoxypyrimidine-5-carboxamide] | > 1000 |
| COc1ncnc(OC)c1C(=O)Nc1nc(C(F)(F)F)c(CN2CCCC2)s1 [Example 49, 4,6-dimethoxy-N-[5-(pyrrolidin-1-ylmethyl)-4-(trifluoromethyl)-1,3-thiazol-2-yl]pyrimidine-5-carboxamide] | 500 to 1000 |
| COc1ncnc(OC)c1C(=O)Nc1nc(C(F)(F)F)c(CN2CCOCC2)s1 [Example 50, 4,6-dimethoxy-N-[5-(morpholin-4-ylmethyl)-4-(trifluoromethyl)-1,3-thiazol-2-yl]pyrimidine-5-carboxamide] | > 1000 |
| COc1ncnc(OC)c1C(=O)Nc1nc(C(F)(F)F)c(CNC2CCCC2)s1 [Example 51, N-{5-[(cyclopentylamino)methyl]-4-(trifluoromethyl)-1,3-thiazol-2-yl}-4,6-dimethoxypyrimidine-5-carboxamide] | 100 to 500 |
| COc1ncnc(OC)c1C(=O)Nc1nc(C(F)(F)F)c(CN(C)CC(C)C)s1 [Example 54, 4,6-dimethoxy-N-[5-{[methyl(2-methylpropyl)amino]methyl}-4-(trifluoromethyl)-1,3-thiazol-2-yl]pyrimidine-5-carboxamide] | < 50 |
| COc1ncnc(OC)c1C(=O)Nc1nc(C(F)(F)F)c(CN(C)C(C)(C)C)s1 [Example 55, N-[5-{[tert-butyl(methyl)amino]methyl}-4-(trifluoromethyl)-1,3-thiazol-2-yl]-4,6-dimethoxypyrimidine-5-carboxamide] | 100 to 500 |
| COc1ncnc(OC)c1C(=O)Nc1nc(C(F)(F)F)c(CNC(C)(C)C)s1 [Example 56, N-{5-[(tert-butylamino)methyl]-4-(trifluoromethyl)-1,3-thiazol-2-yl}-4,6-dimethoxypyrimidine-5-carboxamide] | > 1000 |
| COc1ncnc(OC)c1C(=O)Nc1nc(C(F)(F)F)c(CN2CC[C@H](F)C2)s1 [Example 57, N-[5-{[(3 S)-3-fluoropyrrolidin-1-yl]methyl}-4-(trifluoromethyl)-1,3-thiazol-2-yl]-4,6-dimethoxypyrimidine-5-carboxamide] | 100 to 500 |
| COc1ncnc(OC)c1C(=O)Nc1nc(C(F)(F)F)c(CN2CC[C@H](OC)C2)s1 [Example 59, 4,6-dimethoxy-N-[5-{[(3S)-3-methoxypyrrolidin-1-yl]methyl}-4-(trifluoromethyl)-1,3-thiazol-2-yl]pyrimidine-5-carboxamide] | 500 to 1000 |
| COc1ncnc(OC)c1C(=O)Nc1nc(C(F)(F)F)c(CN2CC[C@@H](OC)C2)s1 [Example 60, 4,6-dimethoxy-N-[5-{[(3R)-3-methoxypyrrolidin-1-yl]methyl}-4-(trifluoromethyl)-1,3-thiazol-2-yl]pyrimidine-5-carboxamide] | 500 to 1000 |
| COc1ncnc(OC)c1C(=O)Nc1nc(C(F)(F)F)c(CN2CCC3(CC2)COC3)s1 [Example 61, 4,6-dimethoxy-N-[5-(2-oxa-7-azaspiro[3.5]non-7-ylmethyl)-4-(trifluoromethyl)-1,3-thiazol-2-yl]pyrimidine-5-carboxamide] | 100 to 500 |
| COc1ncnc(OC)c1C(=O)Nc1nc(C(F)(F)F)c(CN2CCCC3(COC3)C2)s1 [Example 62, 4,6-dimethoxy-N-[5-(2-oxa-6-azaspiro[3.5]non-6-ylmethyl)-4-(trifluoromethyl)-1,3-thiazol-2-yl]pyrimidine-5-carboxamide] | 50 to 100 |
